According to patent US8338465B2, “Cyclic carboxylic acid rhodanine derivatives for the treatment and prevention of tuberculosis” (priority 2006, dated 2012):
“And” between values parts separate entries of the source, which are not always exact repeats. Equal entries are not always repeated. Structures can show the parent of a compound that is named as a salt. Where two headings read alike, the source gives them in different places.

Tests used:
[1] = tested on: PDH complex from porcine heart; test: PDH assay with porcine heart PDH complex; settings: increasing concentrations up the limit of its solubility; FIG. 5
[2] = molecular target: T1, dihydrolipoamide acyltransferase (DlaT) (Mycobacterium tuberculosis, UniProt P9WIS7); test: DlaT inhibition (Dlat IC50); DTNB peroxidase assay with Lpd, DlaT and AhpD; format: biochemical; settings: for IC50: Dlat IC50 category
T1 sequence (P9WIS7 1-553): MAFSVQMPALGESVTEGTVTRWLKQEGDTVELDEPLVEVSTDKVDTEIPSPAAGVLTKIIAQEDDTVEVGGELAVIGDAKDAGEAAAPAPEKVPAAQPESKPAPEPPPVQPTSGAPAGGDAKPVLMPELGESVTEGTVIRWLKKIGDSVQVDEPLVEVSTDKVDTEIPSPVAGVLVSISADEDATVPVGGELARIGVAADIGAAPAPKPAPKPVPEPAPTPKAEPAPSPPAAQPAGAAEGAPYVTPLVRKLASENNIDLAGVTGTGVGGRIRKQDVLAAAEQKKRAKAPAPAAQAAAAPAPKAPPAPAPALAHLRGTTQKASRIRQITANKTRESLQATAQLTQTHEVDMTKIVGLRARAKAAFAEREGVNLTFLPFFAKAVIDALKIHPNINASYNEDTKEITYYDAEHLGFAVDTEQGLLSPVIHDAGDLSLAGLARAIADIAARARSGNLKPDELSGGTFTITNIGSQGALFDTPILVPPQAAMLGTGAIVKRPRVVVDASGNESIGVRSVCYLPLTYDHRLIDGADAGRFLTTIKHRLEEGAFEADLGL

[3] = tested on: Enterococcus faecalis; test: MIC determination (A600 after 24 hours); settings: for MIC: Enterococcus faecalis
Experimental: (§1) Bacteria were grown to mid-logarithmic phase, diluted to A600=0.1 and inoculated in 200 μl in 96-well plates in the presence of serial dilutions of compounds or vehicle control (DMSO). MICs (minimal concentrations that prevented bacterial growth) were determined at A600 after 24 hours incubation at 37° C.

[4] = molecular target: T2, Mtb's PDH (Mycobacterium tuberculosis, UniProt P9WIS7); test: PDH assay with Lpd, DlaT and AceE (NADH formation at 340 nm); format: biochemical; settings: preincubation at room temperature, remaining activity over time; FIG. 4
T2 sequence (P9WIS7 1-553): T1 sequence (P9WIS7 1-553)
Experimental: Reaction mixtures containing 200 nM Lpd, 350 nM DlaT, 200 nM AceE with or without 1 mM NAD+, 1 mM pyruvate, […] and […] D155931 were preincubated at room temperature and […] tested for remaining activity over time by PDH assay.

[5] = tested on: bacteria and yeast; settings: 10^4-10^5 CFU/mL inoculum
Experimental: as §1

[6] = tested on: Mycobacterium tuberculosis; test: Killing of M. tuberculosis at acidic pH plus or minus nitrite (CFU counts); settings: pH 5.5 or pH 4.5, plus or minus NaNO2, 4 days, FIG. 8
Excerpt: In vitro, RNI can be generated under physiologically relevant conditions by provision of nitrite at a mildly acidified pH. During infection, Mtb resides chiefly in the phagosome of macrophages, where the pH is ˜6 in immunologically non-activated cells and can fall to ˜4.5 in those that have been activated by interferon-γ. Activated macrophages produce RNI, the most abundant of which is the accumulating autoxidation product of NO, nitrite (NO2^−). In the present assay, the intraphagosomal milieu of moderately activated macrophages was partially mimicked by culturing mycobacteria at pH 5.5 with nitrite. […] At pH 5.5, 0.5 mM nitrite generates an amount of NO no greater than that released by 3×10^5 activated macrophages in 0.5 mL in 24 hours. In the present assay pH 5.5, with or without 0.5 mM nitrite, was used.
M. tuberculosis was grown in 7H9+0.2% glycerol+0.05% Tween-80+10% ADN, pH 6.6. CFU were enumerated on 7H11 agar plates with 10% OADC enrichment. Mid-log cultures (A580 0.8-1.0) were prepared as single cell suspensions in 7H9 at pH 5.5 or pH 4.5 and diluted to 0.1 (A580). Inoculum was determined by CFU. Bacteria were incubated with compounds plus or minus 0.5 mM NaNO2 (pH 5.5) or 0.05 NaNO2 (pH 4.5) in 96 well plates in 200 μl for 4 days and plated for CFU counts after serial dilution in 7H9, pH 6.6.

[7] = tested on: Staphylococcus aureus; test: MIC determination (A600 after 24 hours); settings: for MIC: Staphylococcus aureus, 10^4-10^5 CFU/mL inoculum
Experimental: as §1

[8] = tested on: Mycobacterium bovis var. Bacille Calmette Guerin (BCG); format: cell-based; settings: pH 5.5 or pH 4.5, plus or minus NaNO2, 4 days, CFU; FIGS. 6 and 7
[9] = Table 21, Prodrugs (Examples U1 to U10)

With `O=C(O)c1cccc(N2C(=O)C(=Cc3ccc(-c4ccccc4Cl)o3)SC2=S)c1` (single isomer, unassigned) [Mycopyrin 5, 3-[5[[5-(2-chlorophenyl)-2-furanyl]methylene]-4-oxo-2-thioxo-3-thiazolidinyl]benzoic acid] the “inhibition of porcine PDH” value [1] was “does not inhibit”, the IC50 ([2]; Table 1, Compounds A1 to A294) was 11 to 40 µM and the “reversibility of DlaT inhibition” value ([2]; in presence of NADH, preincubation at room temperature, remaining activity over time, FIG. 3) was “irreversible inhibitor”. The MIC ([3]; pH 5.5) was 5 µM and 2.2 µg/mL, the MIC ([3]; pH 6.6) was > 50 µM and > 22 µg/mL and the “killing of Enterococcus faecalis” value ([3]; Table 22) was “kills”. For the same compound, the “type of inhibition of Mtb's PDH” value [4] was “time-dependent, substrate-independent inhibitor”, the MIC ([5]; Escherichia coli, pH 5.5) was >50 μM and >22 μg/ml and the MIC ([5]; Escherichia coli, pH 6.6) was >50 μM and >22 μg/ml. The MIC ([5]; Pseudomonas aeruginosa, pH 5.5) was >50 μM and >22 μg/ml, the MIC ([5]; Pseudomonas aeruginosa, pH 6.6) was >50 μM and >22 μg/ml and the “bactericidal activity to Mycobacterium tuberculosis” value [6] was “bactericidal”. For the same compound, the MIC ([7]; pH 5.5, Staphylococcus aureus (brain heart infusion), pH 5.5) was 5 µM and 2.2 µg/mL, the MIC ([7]; pH 5.5, Staphylococcus aureus (nutrient broth), pH 5.5) was 1 µM and 0.43 µg/mL and the MIC ([7]; pH 6.6, Staphylococcus aureus (brain heart infusion), pH 6.6) was > 50 µM and > 22 µg/mL. The MIC ([7]; pH 6.6, Staphylococcus aureus (nutrient broth), pH 6.6) was 2.5 µM and 1.1 µg/mL, the “killing of Staphylococcus aureus” value ([7]; Table 22) was “kills” and the “bactericidal activity to M. bovis BCG” value [8] was “bactericidal”.

In the case of `CSc1ccc(-c2ccc(C=C3SC(=S)N(C4CCCC(C(=O)NC(CO)CO)C4)C3=O)o2)cc1` (stereo not drawn) [Compound U8, 3-{5-[1-[5-(4-Methylsulfanyl-phenyl)-furan-2-yl]-methylidene]-4-oxo-2-thioxo-thiazolidin-3-yl}-cyclohexanecarboxylic acid (2-hydroxy-1-hydroxymethyl-ethyl)-amide], the IC50 [2, 9] is reported as 41 to 80 µM.

Work on `CS(=O)(=O)c1ccc(-c2ccc(C=C3SC(=S)N(C4CCCC(C(=O)OCCCO)C4)C3=O)o2)cc1` (stereo not drawn) [Compound U9, 3-{5-[1-[5-(4-Methanesulfonyl-phenyl)-furan-2-yl]-methylidene]-4-oxo-2-thioxo-thiazolidin-3-yl}-cyclohexanecarboxylic acid 3-hydroxy-propyl ester] yielded an IC50 [2, 9] of 41 to 80 µM.

For `CSc1ccc(-c2ccc(C=C3SC(=S)N(C4CCCC(C(=O)OCCN(CCO)CCO)C4)C3=O)o2)cc1` (stereo not drawn) [Compound U10, 3-{5-[1-[5-(4-Methylsulfanyl-phenyl)-furan-2-yl]-methylidene]-4-oxo-2-thioxo-thiazolidin-3-yl}-cyclohexanecarboxylic acid 2-[bis-(2-hydroxy-ethyl)-amino]-ethyl ester hydrochloride], the IC50 [2, 9] was < 10 µM.
